Key:
Type in all cases: cell-based
HCC827 = test: Test Example 4 cell killing study (CTG, 6 days); conditions: Homo sapiens, HCC827, 144 h, 6 days culture
Description: (§1) The objective of this study is to test the inhibitory activity of the anti-TROP-2 antibody (PD3)-drug conjugate of the present disclosure against the proliferation of different tumor cell lines: Miapaca2 tumor cells (human pancreatic cancer cells, Nanjing Kebai Biotechnology Co., Ltd., Cat #CBP60544), Fadu tumor cells (human squamous cell carcinoma, ATCC, Cat #HTB-43), SK-OV-3 (human ovarian cancer cells, ATCC, Cat #HTB-77), K562 (human chronic granulocytic leukemia cells, ATCC, Cat #CCL-243), HCC827 (human lung cancer cells, ATCC, Cat #CRL-2868) and BXPC3 (human pancreatic cancer cells, ATCC, Cat #CRL-1687). The cells were treated in vitro with the antibody drug conjugate at different concentrations. After 6 days of culture, the proliferation of cells was tested using CTG (CellTiter-Glo® Luminescent Cell Viability Assay, Promega, Cat #G7573) reagents, and the in vitro activity of the antibody drug conjugate was evaluated according to IC50 value.
(§2) 2) Cell plating: on the day of the study, after the cells were digested with Trypsin (0.25% Trypsin-EDTA (1×), Life Technologies, Cat #25200-072), MiaPaCa2, Fadu, SK-OV-3, K562, HCC827 and BXPC3 were suspended in cell suspensions using the corresponding media to a density of 3.7×10^3 cells/mL, and 135 μL of suspension was added into each well of a 96-well plate (coming, Cat #3903) to culture 500 cells per well at 37° C. for 24 h.
(§3) 3) Drug preparation: the mother liquor of the test ADC was first adjusted to have a concentration of 4 μM and was added to the first column of a drug preparation plate (coming, Cat #3599). The plate was diluted 5-fold in gradient from column 2 to column 9, with PBS in column 10. 15 μL of the mother liquor in each well was added to the cell culture plate.
(§4) 4) CTG assay: after being cultured at 37° C. for 6 days, the cell culture plate was removed and balanced to room temperature. 75 μL of CTG was added into each well and reacted at room temperature for 10 min in the dark. The absorption value was read using a microplate reader (BMG labtech, PHERAstar FS).
(§5) Data were processed and analyzed using Graphpad Prism 5.

SK-OV-3 = test: Test Example 4 cell killing study (CTG, 6 days); conditions: Homo sapiens, SK-OV-3, 144 h, 6 days culture, read-out: IC50 (SKOV3)
Description: as §1, §2, §3, §4, §5

BXPC3 = test: Test Example 4 cell killing study (CTG, 6 days); conditions: Homo sapiens, BXPC-3, 144 h, 6 days culture
Description: as §1, §2, §3, §4, §5

Miapaca2 tumor cells = test: Test Example 4 cell killing study (CTG, 6 days); conditions: Homo sapiens, MIA PaCa-2, 144 h, 6 days culture, read-out: IC50 (Miapaca)
Description: as §1, §2, §3, §4, §5

K562 = test: Test Example 4 cell killing study (CTG, 6 days); conditions: Homo sapiens, K562, 144 h, 6 days culture
Description: as §1, §2, §3, §4, §5

Fadu tumor cells = test: Test Example 4 cell killing study (CTG, 6 days); conditions: Homo sapiens, 144 h, 6 days culture
Description: as §1, §2, §3, §4, §5

SKBR3 = test: Test Example 2 in vitro cytotoxic activity screening (CTG)
Method: (§6) The CTG is used for detecting the ATP content in the experiment, and the survival condition of the tumor cells is reflected.
(§7) A549, SKBR3 and MDA-MB-468 were digested with trypsin, and each was resuspended in culture medium to a cell density of 2.2×10^4 cells/mL, and 135 μL of cell suspension was added to each well in columns 2 to 11 of a 96-well plate, and column 12 was set as blank control. The cells were incubated in an incubator for 24 h at 37° C. with 5% CO2.
(§8) a) Stock solution preparation: the test compound and positive control drug were dissolved in DMSO to give a stock solution at a concentration of 5 mM.
(§9) b) Drug preparation plate 1: stock solution in column 1 was initially diluted 40-fold, and 3-fold gradient dilutions were performed sequentially in column 2 to column 11. Column 12 was filled with DMSO.
(§10) c) Drug preparation plate 2: 196 μL of the corresponding culture medium was added into columns 2 to 11, and 4 μL of culture medium was pipetted from column 3 to column 12 of drug preparation plate 1 to column 2 to column 11 of drug preparation plate
(§11) 15 μL of culture medium was pipetted from the drug preparation plate 2 and added into the plated cells. The cells were continuously incubated in an incubator for 5 h at 37° C. with 5% CO2.
(§12) 2.4) CTG assay (Cell Titer-Glo™, luminescent cell viability assay): the cell plates were removed and balanced to room temperature. 75 μL of CTG was added into each well and reacted at room temperature for 10 min in the dark. The absorption value was read using a microplate reader and IC50 was calculated.

MDA-MB-468 = test: as above
Method: as §6, §7, §8, §9, §10, §11, §12

A549 = test: as above
Method: as §6, §7, §8, §9, §10, §11, §12

SMILES: C=C1C[C@@H]2CC[C@@]34C[C@H]5O[C@H]6[C@@H](O3)[C@H]3O[C@H](CC[C@@H]3O[C@H]6[C@H]5O4)CC(=O)C[C@@H]3[C@@H](OC)[C@@H](C[C@H](O)CO)O[C@H]3C[C@H]3O[C@@H](CC[C@@H]1O2)C[C@@H](C)C3=C [Compound E1-30, reference compound]
- IC50 (HCC827): 0.31 nM
- IC50 (SK-OV-3): 0.17 nM
- IC50 (BXPC3): 0.23 nM
- IC50 (Miapaca2 tumor cells): 0.45 nM
- IC50 (K562): 0.39 nM
- IC50 (Fadu tumor cells): 0.32 nM
- IC50 (SKBR3; Homo sapiens, SK-BR-3, 5 h): 0.166 nM
- Maximum inhibition (SKBR3; SKBR3, CTG, incubated 5 h): 96.15%
- IC50 (MDA-MB-468; Homo sapiens, MDA-MB-468, 5 h): 0.36 nM
- Maximum inhibition (MDA-MB-468; MDA-MB-468, CTG, incubated 5 h): 90.49%
- Maximum inhibition (A549; A549, CTG, incubated 5 h): 62.46%
- IC50 (A549; Homo sapiens, A549, 5 h): 0.781 nM

— patent US20230144203A1 (SHANGHAI SENHUI MEDICINE CO., LTD., priority 2020, published 2023)
